Counter-ions that a name gives are not always drawn.

The target in the first assay is T1, sigma 2 receptor (Rattus norvegicus, UniProt Q5U3Y7).
T1 construct: A crude P2 membrane fraction was prepared from livers of male rats (Sprague-Dawley rats); from tissue; host or cells: rat liver (male Sprague-Dawley), crude P2 membrane fraction
T1 sequence (Q5U3Y7 1-176): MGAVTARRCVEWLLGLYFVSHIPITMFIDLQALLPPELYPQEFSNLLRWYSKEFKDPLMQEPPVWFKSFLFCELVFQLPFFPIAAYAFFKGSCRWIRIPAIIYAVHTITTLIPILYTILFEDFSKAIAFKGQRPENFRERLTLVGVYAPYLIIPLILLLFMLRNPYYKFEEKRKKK
Put plainly: Sigma 2-selective receptor binding inhibition test ([3H]-DTG, rat liver P2 membrane fraction). Particulars: [3H]-DTG 1 nM, 500 nM pentazocine, P2 fraction of livers of male Sprague-Dawley rats, 25° C., 2 hours. As for the experimental part:
Sigma Binding Site-Binding Inhibition Test
A crude P2 membrane fraction was prepared from livers of male rats (Sprague-Dawley rats) according to a method described in the literature (X. He, et al., J. Med. Chem., 36, pp. 566–571, 1993). In the presence of 500 nM pentazocine and a control compound at various concentrations (haloperidol, 10^−10 to 10^−6 M) or a test ligand at various concentrations (10^−10 to 10^−5 M) together with a radioactive ligand, the P2 fraction (0.4 ml) was incubated in 50 mM Tris-HCl (pH 7.4, final volume: 0.5 ml) at 25° C. for 2 hours. The reaction mixture was rapidly filtered on a Brandel cell harvester using Whatman GF/B filter paper, which was immersed beforehand in 0.5% polyethyleneimine for 1 hour, to stop the reaction. The filter paper was washed 4 times with the ice cooled incubation buffer. The non-specific results were evaluated by using 1 μM haloperidol, and the scintillation analysis and the curve analysis were performed as described above.
`O=C(CN1CCC(CN2Cc3cc(Cl)ccc3C2=O)CC1)c1ccc(F)cc1` [Example 8, 5-Chloro-2-[[1-[2-(4-fluorophenyl)-2-oxoethyl]piperidin-4-yl]methyl]isoindolin-1-one hydrochloride]: affinity was put at a Ki of 3.1 nM. Still for that read-out and setting: then `CC(C)(C)C(=O)CN1CCC(CN2Cc3ccccc3C2=O)CC1` [Example 24, 2-[[1-(3,3-Dimethyl-2-oxobutyl)piperidin-4-yl]methyl]isoindolin-1-one hydrochloride], with 13 nM. The same measure, in the same setting: in the case of `O=C(CCCN1CCC(CN2Cc3ccccc3C2=O)CC1)c1ccc(F)cc1` [Example 31, 2-[[1-[4-(4-Fluorophenyl)-4-oxobutyl]piperidin-4-yl]methyl]isoindolin-1-one hydrochloride] it was 22 nM; in that of `O=C(CN1CCC(CN2Cc3ccsc3C2=O)CC1)c1ccc(F)cc1` [Example 22, 5-[[1-[2-(4-Fluorophenyl)-2-oxoethyl]piperidin-4-yl]methyl]-4,5-dihydro-6H-thieno[2,3-c]pyrrol-6-one hydrochloride], 22 nM. The molecule `O=C(CN1CCC(CN2CCc3ccccc3C2=O)CC1)c1ccc(F)cc1` [Example 137, 2-[[1-[2-(4-Fluorophenyl)-2-oxoethyl]piperidin-4-yl]methyl]-3,4-dihydroisoquinolin-1(2H)-one hydrochloride] showed a Ki of 7.8 nM.

The molecule `O=C1c2ccccc2CN1CC1CCN(CCOc2ccc(F)cc2)CC1` [Example 32, 2-[[1-[2-(4-Fluorophenyloxy)ethyl]piperidin-4-yl]methyl]isoindolin-1-one hydrochloride] had a Ki of 2.8 nM. Compared with the last molecule, the Ki is about 2.8-fold lower.

The assay is the same for the next values; noted with them: test compound 10 nM; [3H]-DTG 1 nM, 500 nM pentazocine, rat liver P2 fraction.
`Cl.O=C(CN1CCC(CN2Cc3ccccc3C2=O)CC1)c1cccn1-c1ccccc1` [Example 95, 2-[[1-[2-[2-(1-Phenyl)pyrrolyl]-2-oxoethyl]piperidin-4-yl]methyl]-isoindolin-1-one hydrochloride]: the “Inhibitory rate against sigma 2 (%, 10 nM)” value is 69%.

The same assay, now with this note: test compound 10 nM; [3H]-DTG 1 nM, 500 nM pentazocine, rat liver P2 fraction; read-out: Inhibitory rate against sigma 2 (%, 10 nM).
Regarding `O=C1c2ccc(Cl)cc2CN1CC1CCN(CCOc2ccc(F)cc2)CC1` [Example 178, 5-Chloro-2-[1-[2-(4-fluorophenoxy)ethyl]piperidin-4-ylmethyl]isoindolin-1-one fumarate], the inhibition at 0.01 µM turned out to be 50%. The same measure, in the same setting: in the case of `COc1ccccc1CCN1CCC(CN2Cc3cc(Br)ccc3C2=O)CC1` [Example 167, 2-[1-[2-(2-Methoxyphenyl)ethyl]piperidin-4-ylmethyl]-5-bromoisoindolin-1-one hydrochloride] it was 62%. Still for that read-out and setting: in the case of `O=C(CN1CCC(CN2Cc3ccoc3C2=O)CC1)c1ccc(F)cc1` [Example 158, 5-[[1-[2-(4-Fluorophenyl)-2-oxoethyl]piperidin-4-yl]methyl]-4,5-dihydro-6H-furo[2,3-c]pyrrol-6-one fumarate] it was 57%. The same measure, in the same setting: in the case of `O=C1c2ccccc2CN1CC1CCN(CCOc2ccccc2F)CC1` [Example 117, 2-[[1-[2-(2-Fluorophenoxy)ethyl]piperidin-4-yl]methyl]isoindolin-1-one fumarate] it was 52%; in that of `O=C1c2ccccc2CN1CC1CCN(CCSc2ccccc2F)CC1` [Example 112, 2-[[1-[2-(2-Fluorophenylthio)ethyl]piperidin-4-yl]methyl]isoindolin-1-one fumarate], 60%; in that of `O=C1c2ccccc2CN1CC1CCN(CCOc2cccc(F)c2)CC1` [Example 118, 2-[[1-[2-(3-Fluorophenoxy)ethyl]piperidin-4-yl]methyl]isoindolin-1-one fumarate], 50%.

`O=C1c2ccccc2CN1CC1CCN(CC(O)C2CCCCC2)CC1` (stereo not drawn) [Example 85, 2-[[1-(2-Cyclohexyl-2-hydroxyethyl)piperidin-4-yl]methyl]isoindolin-1-one fumarate]: the inhibition at 0.01 µM was 59%. Turning to `O=C1c2ccccc2CN1CC1CCN(CCc2ccccc2C(F)(F)F)CC1` [Example 96, 2-[[1-[2-(2-Trifluoromethylphenyl)ethyl]piperidin-4-yl]methyl]-isoindolin-1-one fumarate], the inhibition at 0.01 µM amounted to 66%.

What is called Ki is a measure of affinity in units of concentration, obtained from inhibition or displacement.

The values above are taken from patent US7166617B2, “Cyclic amide derivatives” (Mitsubishi Pharma Corporation, priority 2000, dated 2007).
